Here are results for 18 substances from US11840686B2, “Modulation of prekallikrein (PKK) expression” (Ionis Pharmaceuticals, Inc., priority 2013, dated 2023).

One may read the % inhibition as the percentage by which the read-out fell short of the control.

The data set has as its system human PKK mRNA. In words: Antisense inhibition of human PKK mRNA in HepaRG cells, 5,000 nM (Example 2). The data set is classed as cell-based. A digest of the protocol:
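Percent inhibition of PKK mRNA is relative to untreated control, with qRT-PCR (probe set RTS3454) values adjusted to total RNA by RIBOGREEN. Oligonucleotides, fully phosphorothioate 2′-MOE gapmers, were delivered at 5,000 nM by electroporation into 20,000 HepaRG cells/well for about 24 h.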

Setting [1] is: human PKK mRNA in HepaRG cells, 5-10-5 gapmers, Table 14.
Where [2] appears, read: HepaRG cells, electroporation, 5,000 nM antisense oligonucleotide, approx. 24 hours, primer probe set RTS3454, relative to untreated control cells, Table 11.
The mark [3] stands for this setting: HepaRG cells, electroporation with 5,000 nM antisense oligonucleotide, approximately 24 hours, PKK mRNA by RT-PCR (RTS3454), relative to untreated control cells, Table 6 experiment.

Strand notation (5' to 3'): a small letter for the sugar, then the base; units joined by * are phosphorothioate-linked, units joined directly phosphodiester-linked; [ ] holds rarer units or linkages, { } end groups; capitals alone tell only the bases. e = 2'-O-(2-methoxyethyl) (MOE); [5mC] = 5-methylcytosine; d = 2'-deoxy (DNA)

Turning to “546861 (eT*eA*eA*e[5mC]*eA*dA*dT*dA*dT*d[5mC]*dA*d[5mC]*dT*dG*dT*e[5mC]*e[5mC]*eT*eA*eT; antisense) [compound 546861]”, under setting [1], the “% inhibition” value is recorded as 68%. On to “546171 (antisense e[5mC]*eT*eA*eT*e[5mC]*dT*dT*dT*d[5mC]*dA*dA*dG*dA*dA*dG*e[5mC]*eA*eA*e[5mC]*e[5mC]) [compound 546171]”, for which, for the setting “HepaRG cells, electroporation with 5,000 nM antisense oligonucleotide, approximately 24 hours, PKK mRNA by RT-PCR (RTS3454), relative to untreated control cells, Table 5 experiment”, the “% inhibition” value is 81%. On to “547642 (eT*e[5mC]*eA*e[5mC]*eT*dG*dT*d[5mC]*d[5mC]*dT*dA*dT*dA*dA*d[5mC]*eT*eA*eT*eA*eA; antisense) [compound 547642]”, for which the “% inhibition” value (human PKK mRNA, HepaRG cells, 5-10-5 motif oligonucleotides targeting SEQ ID NO: 1 and 10) came to 72%. As to “546345 (antisense e[5mC]*eA*eA*eG*e[5mC]*dA*dT*d[5mC]*dT*dT*dT*dT*d[5mC]*d[5mC]*d[5mC]*e[5mC]*e[5mC]*eT*eT*e[5mC]) [compound 546345]”, the “% inhibition” value amounted to 86% (Table 9 experiment, HepaRG cells, 20,000 cells per well, electroporation with 5,000 nM antisense oligonucleotide, approx. 24 hours, PKK mRNA by RT-PCR (RTS3454), relative to untreated control cells) and 80% (Table 10 experiment, HepaRG cells, 20,000 cells per well, electroporation with 5,000 nM antisense oligonucleotide, approx. 24 hours, PKK mRNA by RT-PCR (RTS3454), relative to untreated control cells). Turning to “547059 (eG*eG*eG*eT*eA*dT*d[5mC]*dT*dT*d[5mC]*dA*d[5mC]*dT*dG*dT*eT*e[5mC]*e[5mC]*eA*eG; antisense) [compound 547059]”, the “% inhibition” value (HepaRG cells, 5,000 nM antisense oligonucleotide, 5-10-5 gapmers, Table 17) is 12%.

For “546450 (eG*eT*eG*eG*e[5mC]*d[5mC]*d[5mC]*dT*d[5mC]*dT*dT*dA*dA*dG*dT*e[5mC]*eA*e[5mC]*e[5mC]*eA; antisense) [compound 546450]”, for the setting “HepaRG cells, electroporation, 5,000 nM antisense oligonucleotide, approx. 24 hours, primer probe set RTS3454, relative to untreated control cells, Table 12”, the “% inhibition” value came to 73%. In the case of “546393 (eT*e[5mC]*eT*e[5mC]*eA*dG*dT*dT*dG*d[5mC]*dG*dA*d[5mC]*d[5mC]*dT*e[5mC]*eG*e[5mC]*eA*eT; antisense) [compound 546393]”, under setting [2], the “% inhibition” value came out at 77%. On to “547438 (antisense eG*eG*eG*e[5mC]*e[5mC]*dA*d[5mC]*dT*d[5mC]*dT*d[5mC]*d[5mC]*d[5mC]*d[5mC]*dA*eA*eG*eA*eA*eG) [compound 547438]”, for which, where the note is “Table 8, HepaRG cells, electroporation with 5,000 nM antisense oligonucleotide, approx. 24 hours, PKK mRNA by RT-PCR (RTS3454), relative to untreated control cells”, the “% inhibition” value is on record as 82%. In the case of “547713 (antisense e[5mC]*eT*e[5mC]*eA*eA*dT*dG*d[5mC]*d[5mC]*dA*d[5mC]*d[5mC]*d[5mC]*dT*dT*eT*e[5mC]*e[5mC]*e[5mC]*e[5mC]) [compound 547713]”, the “% inhibition” value (HepaRG cells, 5,000 nM antisense oligonucleotide, 5-10-5 gapmers, Table 16) came to 37%. Consider “547604 (antisense eA*eT*eA*eT*e[5mC]*dA*d[5mC]*dT*dG*dT*dA*d[5mC]*d[5mC]*dT*dA*eT*eA*eA*e[5mC]*eT) [compound 547604]”, for which the “% inhibition” value under setting [1] worked out at 0%.

Take “547350 (antisense eG*eG*e[5mC]*eA*eT*dT*d[5mC]*dT*dT*d[5mC]*dA*dA*d[5mC]*dA*d[5mC]*eT*eG*e[5mC]*eT*eA) [compound 547350]”: the “% inhibition” value under setting [3] is given as 96%. Regarding “548731 (DNA e[5mC]*eT*eG*eT*dA*d[5mC]*dT*dA*dG*dT*dT*dT*d[5mC]*d[5mC]*eT*eA*eT; antisense) [compound 548731]”, the “% inhibition” value (human PKK mRNA, HepaRG cells, 5,000 nM antisense oligonucleotide, Table 18) is listed as 49%. “548728 (DNA eT*eA*e[5mC]*eT*dA*dG*dT*dT*dT*d[5mC]*d[5mC]*dT*dA*dT*eA*eA*e[5mC]; antisense) [compound 548728]”: the “% inhibition” value (HepaRG cells, 5,000 nM antisense oligonucleotide, human PKK mRNA, Table 18) came out at 0%. As to “547321 (antisense eT*e[5mC]*eA*eA*eG*dG*dA*dA*dT*dG*dT*d[5mC]*d[5mC]*dA*dG*eA*eA*eA*e[5mC]*eT) [compound 547321]”, the “% inhibition” value under setting [3] stood at 53%. As to “546859 (eT*eT*eT*e[5mC]*e[5mC]*dT*dA*dT*dA*dA*d[5mC]*dT*dA*dT*dA*eA*e[5mC]*eA*eG*eT; antisense) [compound 546859]”, the “% inhibition” value under setting [1] was determined as 7%. For the substance “547316 (antisense eG*eA*eA*eA*e[5mC]*dT*dG*d[5mC]*dA*d[5mC]*d[5mC]*dT*dG*dT*dT*e[5mC]*eG*eA*eT*eG) [compound 547316]”, the “% inhibition” value under setting [3] was 75%. “547377 (e[5mC]*eA*eT*eT*eT*dG*dT*dA*dT*dA*dG*dA*dA*dT*dG*eT*eA*eA*eA*eG; antisense) [compound 547377]”: the “% inhibition” value (Table 7, HepaRG cells, electroporation with 5,000 nM antisense oligonucleotide, approx. 24 hours, PKK mRNA by RT-PCR (RTS3454), relative to untreated control cells) is 6%.

Regarding “546380 (antisense eG*e[5mC]*e[5mC]*eA*e[5mC]*dT*d[5mC]*dT*d[5mC]*d[5mC]*dA*dT*dG*d[5mC]*dT*eT*eT*eG*e[5mC]*eA) [compound 546380]”, under setting [2], the “% inhibition” value came to 81%.
